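Compound exposure: 48 hours, 5 concentrations, 96-well plates. The concentration for 50% growth inhibition is given as GI50. TGI denotes the concentration required for complete inhibition of growth.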
Experiments:
Assay in all cases: inhibition of tumour cell growth, NCI panel, 48 h
[1] = test system: HS 578T breast
[2] = test system: RXF 393 renal
[3] = test system: SF-295 CNS
[4] = test system: UACC-257 melanoma
[5] = test system: CAKI-1 renal
[6] = test system: CCRF-CEM leukemia
[7] = test system: HL-60(TB) leukemia
[8] = test system: MALME-3M melanoma
[9] = test system: NCI/ADR-RES ovarian
[10] = test system: SNB-75 CNS

SMILES	GI50 [1] [µM]	TGI [1] [µM]	GI50 [2] [µM]	TGI [2] [µM]	GI50 [3] [µM]	TGI [3] [µM]	GI50 [4] [µM]	TGI [4] [µM]	TGI [5] [µM]	TGI [6] [µM]	TGI [7] [µM]	TGI [8] [µM]	TGI [9] [µM]	TGI [10] [µM]	GI50 [5] [µM]	GI50 [6] [µM]	GI50 [7] [µM]	GI50 [8] [µM]	GI50 [10] [µM]	GI50 [9] [µM]
Cn1cc(-c2csc(-c3cn(CCCCN4CCCCC4)c4ccc(F)cc34)n2)c2cccnc21	12.4	53.8	1.52	3.04	1.63	3.05	1.7	3.25												
Cc1ccc(NC(=O)CC/C(CC(=O)C(C)(C)C)=N/NC(=O)C[N+](C)(C)C)cc1C				> 100		> 100		> 100	> 100	> 100	> 100	> 100								
COC(=O)NN1C(C)=C(C(=O)OC)C2(C#N)C(C(=O)OC)=C(C)N(NC(=O)OC)C12N (configuration not stated)								> 100	> 100	> 100	> 100	> 100								
CC1(C)CCCC(C)(C2CCC3(C)C2C(O)CC2C4(C)CCC(O)C(C)(C)C4C(O)CC23C)O1 (configuration not stated)		30.8				24.7		28.1	17.6	8.67	5.44	50.1	37.4	24.6						
COC(=O)C[CH2][Ge]([CH3])([CH3])[S]c1ccccc1			4.08	23.3	18	62.3	51.2	> 100	79.1	24.3	31.4	> 100		> 100	40.2	5.27	12.2	> 100	31.4	
C=C1CC[C@@H]2[C@](C)(COC(C)=O)[C@H](OC(C)=O)CC[C@@]2(C)[C@@H]1CC(Nc1ccc(S(=O)(=O)Nc2cc(C)on2)cc1)C1=CCOC1=O (some centres not stated)	3.92	26.7	2.05	3.84	8.13	21	2.95	6.19	14.7	2.71	3.69		12	11.5	4.14	0.477	1.39		2.03	2.41
NC(=O)c1ncn(CCN2CCN(C(=O)NCCCCCCNC(=O)N3CCN(CCn4cnc(C(N)=O)c4N)CC3)CC2)c1N				> 100		> 100		> 100	> 100	> 100	> 100	> 100		> 100						
COc1ccc2c(c1)[n+]([O-])c(-c1ccc(Br)cc1)c(N)[n+]2[O-]				> 100		> 100		> 100	> 100	> 100	> 100	60.1		> 100						
CCCCCc1cc[n+](CC(=O)c2ccc([N+](=O)[O-])cc2)cc1	10.2	36.5	24.3	94.4	6.52	24.3	2.28	7.08	34.8			8	52.2	26.6	11.2			2.15	10.9	18.5
COC(=O)C1=Cc2cc(OC)c(OC)cc2[C@H](c2ccc(OC)c(OC)c2)C1C(=O)OC (some centres not stated)				> 100		> 100		> 100	> 100	> 100	> 100	> 100		> 100						
Cc1cc(=O)n2c3c(c4c(cc13)c(CO)cc(=O)n4C)OC2						> 100		> 100	> 100	56.8		28.5		70.5						
CC(=O)c1ccc(Nc2nc(Nc3ccc(F)cc3)nc(Nc3ccc(F)cc3)n2)cc1	4.85	20.2	3.15	11.5	7.13	24.2	14.3	> 100	27.7	> 100		42.1	54.1	29.5	9.02	3.77		6.73	5.62	5.5
O=C1C=CC(=Nc2ccccc2)c2ccccc21		88.6		23.2		21.1		8.39	38.2	> 100	21.7		95.4	20						
N.N.O=P([O-])([O-])CN(CCN(CP(=O)([O-])[O-])CP(=O)([O-])[O-])CP(=O)([O-])[O-].[Pt+2]			> 100	> 100	> 100	> 100	> 100	> 100	> 100		> 100	> 100			> 100		> 100	> 100		
Nc1ccccc1NC(=O)c1ccc(CN2CCC/C(=C\c3ccccn3)C2=O)cc1			0.755	3.48	1.92	11.7	1.15	14.8	9.19	> 100	6.48	> 100	> 100	6.05	1.41	0.645	0.467	1.01	1.06	1.33
COC(=O)c1ccc2c(c1)C(=O)c1c-2n(C)c(=O)c2cc(OC)c(OC)cc12	> 50	> 50	0.123	26.1	34	> 50			> 50	> 50		> 50	> 50		> 50	> 50		> 50		> 50
CN(C)CCC=C1c2ccccc2C(C)(C)c2ccccc21	9.03	29.8			3.92	19.7	2.42	6.34	23.6	28.4	27.1		34.1	17.6	8.56	9.84	12.4		2.86	17
O=[N+]([O-])c1ccc(Sc2nc(Cl)nc(NC3CCCC3)n2)cc1	> 10	> 10	3.34	> 10	> 10	> 10			> 10		> 10	> 10	> 10	> 10	3.9		> 10	> 10	> 10	> 10
